{"source": "patent US20060062848A1", "about": "“Formulation comprising itraconazole” (Nektar Therapeutics UK Limited, priority 2004, published 2006)", "origin": "cited, not measured here", "note": "Read-outs that look alike come from different tables or passages of the source."}
{"smiles": "CCC(C)n1ncn(-c2ccc(N3CCN(c4ccc(OCC5CO[C@](Cn6cncn6)(c6ccc(Cl)cc6Cl)O5)cc4)CC3)cc2)c1=O", "note": "(mixture of isomers) [itraconazole, (±) cis-4-[4-[4-[4-[[2-(2,4-dichlorphenyl)-2-(1H-1,2,4-triazol-1-ylmethyl)-1,3-dioxolan-4-yl]methoxy]phenyl]-1-piperazinyl]phenyl]-2,4-dihydro-2-(1-methylpropyl)-3H-1,2,4-triazol-3-one]", "values": [{"measurement": "aqueous solubility", "setting": "neutral pH", "value": 0.001, "unit": "µg/mL"}, {"measurement": "aqueous solubility", "setting": "pH 1", "value": 6, "unit": "µg/mL"}]}
